From US12435092B2, “Substituted imidazo[1,2-A]quinazolines as inhibitors of PARG” (858 Therapeutics, Inc., priority 2022, dated 2025)

Biological target: T1, cellular PARG (Homo sapiens, UniProt Q86W56)
T1 construct: endogenous in cells; host or cells: HeLa
Assay: Nuclear PAR accumulation assay (immunofluorescence high-content imaging)
Type: cell-based
Conditions: HeLa cells, 1 hour compound treatment then MMS 50 μg/mL for an additional hour
Method: Compound IC50 values for inhibition of cellular PARG were determined using an immunofluorescence high-content imaging assay for nuclear PAR accumulation. HeLa cells were plated at 15,000 cells/well in a 96-well plate the day before compound treatment and then treated with varying concentrations of test compound and incubated for 1 hour at 37° C.+5% CO2. Following test compound treatment, methylmethane sulfonate (MMS) was added to a final concentration of 50 μg/mL and the cells were incubated for an additional hour. Following treatment, the cells were fixed with ice cold 95% methanol and the plates sealed and placed at −20° C. for 15 minutes. The cells were then washed once with phosphate buffered saline (PBS) and permeabilized with 0.1% Triton-X 100 for 20 minutes at room temperature. The cells were again washed once with PBS and incubated with an anti-poly-ADP ribose (PAR) monoclonal antibody (Millipore Part #AM80 clone 10H) diluted 1:1,000 in 5% fetal bovine serum +0.1% Tween-20+PBS overnight at 4° C. The cells were then washed three times with PBS before incubation with a fluorescently conjugated goat anti-mouse antibody (Invitrogen A32723) diluted 1:500 in 5% FBS+0.1% Tween-20+PBS for 1 hour at room temperature. The cells were again washed three times with PBS and the nuclei labeled by incubating with 1 μg/mL DAPI (4′,6-diamidino-2-phenylindole). Nuclear PAR accumulation was evaluated using high-content fluorescence microscopy. Four fields for each well were acquired at 20× magnification resulting in at least 1,000 cells analyzed per well. Using high-content software (CellReporterXpress) the nuclei were detected and segmented using the DAPI channel and the fluorescence intensity of the PAR-Alexa 488 channel was quantified within the nuclei regions. Both the average intensity per nucleus and percent PAR positive cells were quantified. Percent PAR positive cells were identified by having greater anti-PAR labeling above the threshold set with vehicle DMSO treated control cells. Percent inhibition of PARG by test compounds was calculated by normalizing the data to the 0.1% DMSO and reference compound control values, which represent 0% and 100% inhibition of enzymatic activity, respectively. Concentration-response-curves and IC50 values were generated using four parameter logistic curve fit software.

T1 sequence (Q86W56 whole entry): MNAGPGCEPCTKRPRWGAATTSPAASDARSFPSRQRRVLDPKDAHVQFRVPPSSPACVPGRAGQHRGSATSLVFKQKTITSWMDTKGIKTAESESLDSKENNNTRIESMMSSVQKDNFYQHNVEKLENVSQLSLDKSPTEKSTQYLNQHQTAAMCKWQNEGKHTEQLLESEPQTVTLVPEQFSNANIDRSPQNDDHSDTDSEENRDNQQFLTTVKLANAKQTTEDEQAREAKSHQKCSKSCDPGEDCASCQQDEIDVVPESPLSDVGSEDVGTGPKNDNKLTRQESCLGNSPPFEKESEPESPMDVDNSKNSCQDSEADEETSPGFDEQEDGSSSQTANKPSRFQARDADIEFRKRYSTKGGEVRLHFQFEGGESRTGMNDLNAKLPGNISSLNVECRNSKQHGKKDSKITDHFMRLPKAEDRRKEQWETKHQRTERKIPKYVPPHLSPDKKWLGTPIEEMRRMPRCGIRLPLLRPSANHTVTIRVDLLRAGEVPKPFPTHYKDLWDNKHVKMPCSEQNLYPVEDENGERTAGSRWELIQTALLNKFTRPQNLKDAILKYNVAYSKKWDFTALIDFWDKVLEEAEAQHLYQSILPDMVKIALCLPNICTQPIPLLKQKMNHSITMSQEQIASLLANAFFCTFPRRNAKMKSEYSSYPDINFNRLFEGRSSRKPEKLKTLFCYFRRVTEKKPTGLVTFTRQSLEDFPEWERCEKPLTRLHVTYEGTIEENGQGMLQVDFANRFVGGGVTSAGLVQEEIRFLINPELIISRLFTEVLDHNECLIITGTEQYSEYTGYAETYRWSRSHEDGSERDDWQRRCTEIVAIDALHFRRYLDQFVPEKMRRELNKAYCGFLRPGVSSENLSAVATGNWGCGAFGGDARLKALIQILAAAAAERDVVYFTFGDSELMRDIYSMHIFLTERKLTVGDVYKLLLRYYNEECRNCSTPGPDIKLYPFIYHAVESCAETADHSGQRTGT

Row | Compound | IC50 [nM]
1 | CCN1C(=O)c2cc(S(=O)(=O)NC3(C)CC3)ccc2N2C1=NC[C@H]2C(C)C [Example 38, (R)-4-ethyl-1-isopropyl-N-(1-methylcyclopropyl)-5-oxo-1,2,4,5-tetrahydroimidazo[1,2-a]quinazoline-7-sulfonamide] | 100 to 1000
2 | CC(C)[C@H]1CN=C2N(Cc3cnn(C)c3)C(=O)c3cc(S(=O)(=O)NC4(C)CC4)ccc3N21 [Example 39, (S)-1-isopropyl-4-((1-methyl-1H-pyrazol-4-yl)methyl)-N-(1-methylcyclopropyl)-5-oxo-1,2,4,5-tetrahydroimidazo[1,2-a]quinazoline-7-sulfonamide] | 1000 to 10000
3 | CC(C)[C@@H]1CN=C2N(Cc3cnn(C)c3)C(=O)c3cc(S(=O)(=O)NC4(C)CC4)ccc3N21 [Example 40, (R)-1-isopropyl-4-((1-methyl-1H-pyrazol-4-yl)methyl)-N-(1-methylcyclopropyl)-5-oxo-1,2,4,5-tetrahydroimidazo[1,2-a]quinazoline-7-sulfonamide] | ≤ 100
4 | CC[C@H]1CN=C2N(CC)C(=O)c3cc(S(=O)(=O)NC4(C)CC4)ccc3N21 [Example 41, (S)-1,4-diethyl-N-(1-methylcyclopropyl)-5-oxo-1,2,4,5-tetrahydroimidazo[1,2-a]quinazoline-7-sulfonamide] | > 10000
5 | CC[C@@H]1CN=C2N(CC)C(=O)c3cc(S(=O)(=O)NC4(C)CC4)ccc3N21 [Example 42, (R)-1,4-diethyl-N-(1-methylcyclopropyl)-5-oxo-1,2,4,5-tetrahydroimidazo[1,2-a]quinazoline-7-sulfonamide] | 100 to 1000
6 | C#CC1CN=C2N(C)C(=O)c3cc(S(=O)(=O)NC4(C)CC4)ccc3N21 (centres unmarked) [Example 43, 1-ethynyl-4-methyl-N-(1-methylcyclopropyl)-5-oxo-1,2,4,5-tetrahydroimidazo[1,2-a]quinazoline-7-sulfonamide] | 100 to 1000
7 | CC[C@H]1CN=C2N(Cc3cnn(C)c3)C(=O)c3cc(S(=O)(=O)NC4(C)CC4)ccc3N21 [Example 44, (S)-1-ethyl-4-((1-methyl-1H-pyrazol-4-yl)methyl)-N-(1-methylcyclopropyl)-5-oxo-1,2,4,5-tetrahydroimidazo[1,2-a]quinazoline-7-sulfonamide] | 100 to 1000
8 | CC[C@@H]1CN=C2N(Cc3cnn(C)c3)C(=O)c3cc(S(=O)(=O)NC4(C)CC4)ccc3N21 [Example 45, (R)-1-ethyl-4-((1-methyl-1H-pyrazol-4-yl)methyl)-N-(1-methylcyclopropyl)-5-oxo-1,2,4,5-tetrahydroimidazo[1,2-a]quinazoline-7-sulfonamide] | ≤ 100
9 | C[C@@H]1CN=C2N(Cc3cnn(C)c3)C(=O)c3cc(S(=O)(=O)NC4(C)CC4)ccc3N21 [Example 46, (R)-1-methyl-4-((1-methyl-1H-pyrazol-4-yl)methyl)-N-(1-methylcyclopropyl)-5-oxo-1,2,4,5-tetrahydroimidazo[1,2-a]quinazoline-7-sulfonamide] | ≤ 100
10 | CCN1C(=O)c2cc(S(=O)(=O)NC3(C)CC3)ccc2N2C1=NC[C@H]2C [Example 47, (R)-4-ethyl-1-methyl-N-(1-methylcyclopropyl)-5-oxo-1,2,4,5-tetrahydroimidazo[1,2-a]quinazoline-7-sulfonamide] | 100 to 1000
11 | CN1C(=O)c2cc(S(=O)(=O)NC3(C)CC3)ccc2N2C1=NCC2C1CC1 (centres unmarked) [Example 48, 1-cyclopropyl-4-methyl-N-(1-methylcyclopropyl)-5-oxo-1,2,4,5-tetrahydroimidazo[1,2-a]quinazoline-7-sulfonamide] | 100 to 1000
12 | CC(C)C1CN=C2N(C)C(=O)c3cc(S(=O)(=O)NC4(C)CC4)ccc3N21 (centres unmarked) [Example 49, 1-isopropyl-4-methyl-N-(1-methylcyclopropyl)-5-oxo-1,2,4,5-tetrahydroimidazo[1,2-a]quinazoline-7-sulfonamide] | 1000 to 10000
13 | CCC1CN=C2N(C)C(=O)c3cc(S(=O)(=O)NC4(C)CC4)ccc3N21 (centres unmarked) [Example 50, 1-ethyl-4-methyl-N-(1-methylcyclopropyl)-5-oxo-1,2,4,5-tetrahydroimidazo[1,2-a]quinazoline-7-sulfonamide] | 100 to 1000
14 | C[C@@H]1CN=C2N(Cc3ccccc3)C(=O)c3cc(S(=O)(=O)NC4(C)CC4)ccc3N21 [Example 51, (R)-4-benzyl-1-methyl-N-(1-methylcyclopropyl)-5-oxo-1,2,4,5-tetrahydroimidazo[1,2-a]quinazoline-7-sulfonamide] | 1000 to 10000
15 | C[C@@H]1CN=C2N(C)C(=O)c3cc(S(=O)(=O)NC4(C)CC4)ccc3N21 [Example 52, (R)-1,4-dimethyl-N-(1-methylcyclopropyl)-5-oxo-1,2,4,5-tetrahydroimidazo[1,2-a]quinazoline-7-sulfonamide] | 100 to 1000
16 | C[C@@H]1CN=C2N(Cc3cnn(CCN(C)C)c3)C(=O)c3cc(S(=O)(=O)NC4(C)CC4)ccc3N21 [Example 53, (R)-4-((1-(2-(dimethylamino)ethyl)-1H-pyrazol-4-yl)methyl)-1-methyl-N-(1-methylcyclopropyl)-5-oxo-1,2,4,5-tetrahydroimidazo[1,2-a]quinazoline-7-sulfonamide] | 100 to 1000
17 | C[C@@H]1CN=C2N(CC3COC3)C(=O)c3cc(S(=O)(=O)NC4(C)CC4)ccc3N21 [Example 54, (R)-1-methyl-N-(1-methylcyclopropyl)-4-(oxetan-3-ylmethyl)-5-oxo-1,2,4,5-tetrahydroimidazo[1,2-a]quinazoline-7-sulfonamide] | > 10000
18 | C[C@@H]1CN=C2N(Cc3cn(C)nc3C(F)(F)F)C(=O)c3cc(S(=O)(=O)NC4(C)CC4)ccc3N21 [Example 55, (R)-1-methyl-4-((1-methyl-3-(trifluoromethyl)-1H-pyrazol-4-yl)methyl)-N-(1-methylcyclopropyl)-5-oxo-1,2,4,5-tetrahydroimidazo[1,2-a]quinazoline-7-sulfonamide] | ≤ 100
19 | Cc1nnc(CN2C(=O)c3cc(S(=O)(=O)NC4(C)CC4)ccc3N3C2=NC[C@H]3C)s1 [Example 56, (R)-1-methyl-4-((5-methyl-1,3,4-thiadiazol-2-yl)methyl)-N-(1-methylcyclopropyl)-5-oxo-1,2,4,5-tetrahydroimidazo[1,2-a]quinazoline-7-sulfonamide] | ≤ 100
20 | C[C@@H]1CN=C2N(Cc3cnn(C(F)F)c3)C(=O)c3cc(S(=O)(=O)NC4(C)CC4)ccc3N21 [Example 57, (R)-4-((1-(difluoromethyl)-1H-pyrazol-4-yl)methyl)-1-methyl-N-(1-methylcydopropyl)-5-oxo-1,2,4,5-tetrahydroimidazo[1,2-a]quinazoline-7-sulfonamide] | ≤ 100
21 | C#CCN1C(=O)c2cc(S(=O)(=O)NC3(C)CC3)ccc2N2C1=NC[C@H]2C [Example 58, (R)-1-methyl-N-(1-methylcyclopropyl)-5-oxo-4-(prop-2-yn-1-yl)-1,2,4,5-tetrahydroimidazo[1,2-a]quinazoline-7-sulfonamide] | ≤ 100
22 | CC#C[C@@H]1CN=C2N(Cc3cnn(C)c3)C(=O)c3cc(S(=O)(=O)NC4(C)CC4)ccc3N21 [Example 59, (R)-4-((1-methyl-1H-pyrazol-4-yl)methyl)-N-(1-methylcyclopropyl)-5-oxo-1-(prop-1-yn-1-yl)-1,2,4,5-tetrahydroimidazo[1,2-a]quinazoline-7-sulfonamide] | ≤ 100
23 | CC#C[C@H]1CN=C2N(Cc3cnn(C)c3)C(=O)c3cc(S(=O)(=O)NC4(C)CC4)ccc3N21 [Example 60, (S)-4-((1-methyl-1H-pyrazol-4-yl)methyl)-N-(1-methylcyclopropyl)-5-oxo-1-(prop-1-yn-1-yl)-1,2,4,5-tetrahydroimidazo[1,2-a]quinazoline-7-sulfonamide] | 100 to 1000
24 | [2H]C([2H])(c1cnn(C)c1)N1C(=O)c2cc(S(=O)(=O)NC3(C)CC3)ccc2N2C1=NC[C@H]2C [Example 61, (R)-1-methyl-4-((1-methyl-1H-pyrazol-4-yl)methyl-d2)-N-(1-methylcyclopropyl)-5-oxo-1,2,4,5-tetrahydroimidazo[1,2-a]quinazoline-7-sulfonamide] | ≤ 100
25 | [2H]C([2H])(c1c(C)noc1C)N1C(=O)c2cc(S(=O)(=O)NC3(C)CC3)ccc2N2C1=NC[C@H]2C [Example 62, (R)-4-((3,5-dimethylisoxazol-4-yl)methyl-d2)-1-methyl-N-(1-methylcyclopropyl)-5-oxo-1,2,4,5-tetrahydroimidazo[1,2-a]quinazoline-7-sulfonamide] | ≤ 100
26 | [2H]C([2H])(c1cnc(C)s1)N1C(=O)c2cc(S(=O)(=O)NC3(C)CC3)ccc2N2C1=NC[C@H]2C [Example 63, (R)-1-methyl-N-(1-methylcyclopropyl)-4-((2-methylthiazol-5-yl)methyl-d2)-5-oxo-1,2,4,5-tetrahydroimidazo[1,2-a]quinazoline-7-sulfonamide] | ≤ 100
